In patent publication US20060247261A1 (priority 2002, published 2006):

Molecular target: T1, human cannabinoid CB2 receptor (Homo sapiens, UniProt P34972)
T1 construct: expressed in transfected cells; host or cells: Saccharomyces cerevisiae strain MMY23 (expresses a chimeric Gpa1/human Galpha-i3 G-protein alpha subunit)
Experiment: Cannabinoid CB2 receptor agonist activity, yeast reporter assay
Type: cell-based
Details: for Emax: read-out: efficacy (Emax) at the cloned human cannabinoid CB2 receptor
In short: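 Agonism read in S. cerevisiae strain MMY23 with the human CB2 receptor integrated at ura3 under the GPD promoter, coupled through a Gpa1/human Gαi3 C-terminal chimeric G-alpha. Compounds were added in DMSO (1% final). Fluorescence versus concentration was fitted by four-parameter fit to give a concentration effect value.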

T1 sequence (P34972 whole entry): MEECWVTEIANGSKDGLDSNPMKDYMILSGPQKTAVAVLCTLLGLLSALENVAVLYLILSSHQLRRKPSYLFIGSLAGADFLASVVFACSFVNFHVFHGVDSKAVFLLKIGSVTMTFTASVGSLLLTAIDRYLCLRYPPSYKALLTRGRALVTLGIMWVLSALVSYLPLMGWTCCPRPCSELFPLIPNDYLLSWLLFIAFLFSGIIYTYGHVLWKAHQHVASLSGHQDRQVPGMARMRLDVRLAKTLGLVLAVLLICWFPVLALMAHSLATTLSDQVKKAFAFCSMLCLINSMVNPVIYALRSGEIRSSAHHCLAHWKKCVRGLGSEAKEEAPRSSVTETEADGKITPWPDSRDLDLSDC

| Compound | EC50 [nM] | Emax [%] |
| --- | --- | --- |
| O=C(NCc1ccnc(F)c1)c1cnc(Nc2cc(Cl)cc(Cl)c2)nc1C(F)(F)F [Example 91, 2-(3,5-Dichloro-phenylamino)-4-trifluoromethyl-pyrimidine-5-carboxylic acid (2-fluoro-pyridin-4-ylmethyl)-amide] | 20 to 1000 | > 50 |
| Cc1cc(CNC(=O)c2cnc(Nc3cccc(F)c3)nc2C(F)(F)F)ccn1 [Example 77, 2-(3-Fluoro-phenylamino)-4-trifluoromethyl-pyrimidine-5-carboxylic acid N-(2-methyl-pyridin-4-ylmethyl)-amide] | > 1000 | < 50 |
| O=C(NCc1cccnc1)c1cnc(Nc2cccc(Cl)c2)nc1C(F)(F)F [Example 60, 2-(3-Chloro-phenylamino)-4-trifluoromethyl-pyrimidine-5-carboxylic acid N-(pyridin-3-ylmetbyl)-amide] | > 1000 | < 50 |
